{"source": "paper PMC5405074", "about": "“Receptor-Mediated Melanoma Targeting with Radiolabeled α-Melanocyte-Stimulating Hormone: Relevance of the Net Charge of the Ligand” (Frontiers in Endocrinology, 2017)", "key": {"MC1R (B16-F1 cells)": {"target": "T1, MC1R (B16-F1 cells) (Mus musculus, UniProt Q01727)", "T1 construct": "endogenous in cells; host or cells: mouse B16-F1 melanoma cells", "T1 sequence (Q01727 whole entry)": "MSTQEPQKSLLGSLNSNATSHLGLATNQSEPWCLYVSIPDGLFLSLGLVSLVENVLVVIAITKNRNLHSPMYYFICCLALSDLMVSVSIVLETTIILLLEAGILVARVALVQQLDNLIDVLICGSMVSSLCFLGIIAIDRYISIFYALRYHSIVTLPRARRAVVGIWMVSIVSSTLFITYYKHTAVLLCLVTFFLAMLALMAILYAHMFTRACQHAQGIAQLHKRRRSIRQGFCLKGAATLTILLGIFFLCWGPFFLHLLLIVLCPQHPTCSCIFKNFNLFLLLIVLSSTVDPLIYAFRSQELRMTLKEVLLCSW", "test": "Competition binding assay with [^125I]-NDP-MSH, mouse B16-F1 melanoma cells", "settings": "B16-F1 cells, [^125I]-NDP-MSH competition, 15°C, 3 h; n = 3–20; ± SEM; ^c = P < 0.05 vs. DOTA-NAP-amide; read-out: Receptor-binding potency IC50", "method": "(§1) Triplicates of 100-µL volumes of B16-F1 or HBL cell suspensions adjusted to 4 × 10^6/mL were incubated in 96-well U-bottom microplates (Falcon 3077). The binding medium consisted of MEM with Earle’s salts, 0.2% BSA, and 0.3 mM 1,10-phenanthroline. This binding medium was called mouse binding medium (MBM). Triplicates of competitor peptide solution (50 µL) yielding final concentrations ranging from 1 × 10^−6 to 1 × 10^−12 M were added. [^125I]NDP-MSH (50,000 cpm) in 50 µL was finally added to each well. The plates were incubated at 15°C for 3 h for B16-F1 cells and at 37°C for 2 h for HBL cells. The incubation was stopped by covering the plates with ice for 10 min. A cell harvester was used to collect cell-bound radioactivity on filters (Packard Unifilter-96 GF/B). The collected radioactivity was counted on a TopCount scintillation counter (Packard) after addition of 50 µL Microscint-20 scintillation cocktail (Perkin Elmer). The IC50 values were calculated with the Prism 6 software (GraphPad Software Inc., San Diego CA, USA).\n(§2) The binding affinity of the peptides to MC1R was assessed by competition binding assays using [^125I]-NDP-MSH as radioligand and both murine B16-F1 and human HBL cells."}, "MC1R (HBL cells)": {"target": "T2, MC1R (HBL cells) (Homo sapiens, UniProt Q01726)", "T2 construct": "endogenous in cells; host or cells: human HBL melanoma cell line", "T2 sequence (Q01726 whole entry)": "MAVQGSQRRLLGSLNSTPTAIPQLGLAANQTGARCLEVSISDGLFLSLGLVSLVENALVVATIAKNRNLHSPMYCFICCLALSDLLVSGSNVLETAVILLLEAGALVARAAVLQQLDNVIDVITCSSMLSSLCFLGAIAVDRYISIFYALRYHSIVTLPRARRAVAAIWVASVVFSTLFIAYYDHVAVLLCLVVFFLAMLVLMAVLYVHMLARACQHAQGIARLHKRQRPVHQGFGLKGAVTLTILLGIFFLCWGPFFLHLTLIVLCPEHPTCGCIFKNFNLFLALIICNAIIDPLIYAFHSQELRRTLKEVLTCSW", "test": "Competition binding assay with [^125I]-NDP-MSH, human HBL melanoma cells", "settings": "HBL cells, [^125I]-NDP-MSH competition, 37°C, 2 h; n = 3–20; ± SEM; ^c = P < 0.05 vs. DOTA-NAP-amide; read-out: Receptor-binding potency IC50", "method": "as §1, §2"}, "[1]": {"test": "Biodistribution of ^111In-labeled peptides in B16-F1 melanoma-bearing mice", "assay_type": "in vivo, mouse (B6D2F1)", "settings": "female, iv, total radioactivity, ^111In-labeled peptide, 185 kBq i.v., mean ± SEM of three experiments, n = 5 animals each", "method": "About 5 × 10^5 B16-F1 cells were implanted subcutaneously to female B6D2F1 mice (C57BL/6 × DBA/2F1 hybrids; breeding pairs obtained from IFFA-CREDO, France). Seven days later, 185 kBq of ^111In-labeled ligand in 200 µL PBS/0.1% BSA were injected intravenously into the lateral tail vein of each mouse. Control mice were injected with a mixture of the tracer and 50 µg α-MSH to determine the non-specific uptake of radioligand. The animals were sacrificed 4, 24, and 48 h postinjection, dissected, and the tissues of interest collected, rinsed of excess blood, and weighed. The radioactivity emitted by each organ was measured in a γ-counter to determine the tissue uptake as percentage of the injected dose (ID) per gram of tissue. The total of injected radioactivity per animal was determined by extrapolation from the counts of a standard collected from the injection solution for each animal. Urine samples were collected at 10, 15, and 20 min and 4 h after injection and kept frozen at −80°C until use. Urine (1 vol) was mixed with methanol (2 vol) to precipitate proteins, and the supernatant was analyzed by RP-HPLC/γ-detection, as described in Ref. ([12]).\nResults are expressed as means ± SEM, unless otherwise stated. The statistical evaluation of data was performed using the one- or two-way ANOVA test. When significant overall effects were obtained by ANOVA, multiple comparisons were made with the Bonferroni correction. P < 0.05 was considered statistically significant. The area under the curve (AUC) was calculated with the GraphPad Prism 6 software for the indicated period of time, using the mean tissue uptake value at each time point."}, "[2]": {"settings": "B6D2F1 (C57BL/6 × DBA/2F1 hybrids), mouse, blood, read-out: Blood uptake"}, "[3]": {"settings": "B6D2F1 (C57BL/6 × DBA/2F1 hybrids), mouse, muscle, read-out: Muscle uptake"}, "[4]": {"settings": "B6D2F1 (C57BL/6 × DBA/2F1 hybrids), mouse, tumor, read-out: Tumor uptake"}, "[5]": {"settings": "B6D2F1, mouse, bone, read-out: Bone uptake"}, "[6]": {"settings": "B6D2F1, mouse, heart, read-out: Heart uptake"}, "[7]": {"settings": "B6D2F1, mouse, kidney, read-out: Kidney uptake"}, "[8]": {"settings": "B6D2F1, mouse, liver, read-out: Liver uptake"}, "[9]": {"settings": "B6D2F1, mouse, lung, read-out: Lung uptake"}, "[10]": {"settings": "B6D2F1, mouse, pancreas, read-out: Pancreas uptake"}, "[11]": {"settings": "B6D2F1, mouse, small intestines, read-out: Small intestines uptake"}, "[12]": {"settings": "B6D2F1, mouse, spleen, read-out: Spleen uptake"}, "[13]": {"settings": "B6D2F1, mouse, stomach, read-out: Stomach uptake"}}, "note": "Like-named read-outs stand apart in the source and are kept apart here."}
{"smiles": "CCCC[C@H](NC(C)=O)C(=O)N[C@@H](CC(=O)O)C(=O)N[C@@H](Cc1c[nH]cn1)C(=O)N[C@H](Cc1ccccc1)C(=O)N[C@@H](CCCNC(=N)N)C(=O)N[C@@H](Cc1c[nH]c2ccccc12)C(=O)NCC(=O)N[C@@H](CCCCNC(=O)CN1CCN(CC(=O)O)CCN(CC(=O)O)CCN(CC(=O)O)CC1)C(N)=O", "note": "[DOTA-NAP-amide, [Ac-Nle^4,Asp^5,D-Phe^7,Lys^11(DOTA)]-α-MSH4-11, reference compound]", "values": [{"measurement": "IC50", "setting": "MC1R (B16-F1 cells)", "value": "1.38 ± 0.35", "unit": "nM"}, {"measurement": "IC50", "setting": "MC1R (HBL cells)", "value": "3.09 ± 1.11", "unit": "nM"}, {"measurement": "tissue uptake at 4 h", "setting": "[1]; [2]", "value": "0.09 ± 0.02", "unit": "%ID/g"}, {"measurement": "tissue uptake at 24 h", "setting": "[1]; [2]", "value": 0.02, "unit": "%ID/g"}, {"measurement": "tissue uptake at 48 h", "setting": "[1]; B6D2F1 (C57BL/6 × DBA/2F1 hybrids), mouse, bone, read-out: Bone uptake", "value": "0.05 ± 0.01", "unit": "%ID/g"}, {"measurement": "tissue uptake at 4 h", "setting": "[1]; [3]", "value": "0.05 ± 0.01", "unit": "%ID/g"}, {"measurement": "tissue uptake at 24 h", "setting": "[1]; [3]", "value": 0.02, "unit": "%ID/g"}, {"measurement": "tissue uptake at 48 h", "setting": "[1]; [3]", "value": 0.01, "unit": "%ID/g"}, {"measurement": "tissue uptake at 24 h", "setting": "[1]; [4]", "value": "2.32 ± 0.15", "unit": "%ID/g"}, {"measurement": "tissue uptake at 48 h", "setting": "[1]; [4]", "value": "1.41 ± 0.12", "unit": "%ID/g"}, {"measurement": "tissue uptake at 4 h", "setting": "[1]; [5]", "value": "0.11 ± 0.02", "unit": "%ID/g"}, {"measurement": "tissue uptake at 24 h", "setting": "[1]; [5]", "value": "0.14 ± 0.02", "unit": "%ID/g"}, {"measurement": "tissue uptake at 4 h", "setting": "[1]; [6]", "value": "0.05 ± 0.01", "unit": "%ID/g"}, {"measurement": "tissue uptake at 24 h", "setting": "[1]; [6]", "value": 0.03, "unit": "%ID/g"}, {"measurement": "tissue uptake at 48 h", "setting": "[1]; [6]", "value": 0.01, "unit": "%ID/g"}, {"measurement": "tissue uptake at 24 h", "setting": "[1]; [7]", "value": "2.41 ± 0.2", "unit": "%ID/g"}, {"measurement": "tissue uptake at 48 h", "setting": "[1]; [7]", "value": "1.55 ± 0.07", "unit": "%ID/g"}, {"measurement": "tissue uptake at 4 h", "setting": "[1]; [8]", "value": "0.34 ± 0.05", "unit": "%ID/g"}, {"measurement": "tissue uptake at 24 h", "setting": "[1]; [8]", "value": "0.31 ± 0.02", "unit": "%ID/g"}, {"measurement": "tissue uptake at 48 h", "setting": "[1]; [8]", "value": "0.27 ± 0.07", "unit": "%ID/g"}, {"measurement": "tissue uptake at 4 h", "setting": "[1]; [9]", "value": "0.08 ± 0.01", "unit": "%ID/g"}, {"measurement": "tissue uptake at 24 h", "setting": "[1]; [9]", "value": "0.05 ± 0.01", "unit": "%ID/g"}, {"measurement": "tissue uptake at 48 h", "setting": "[1]; [9]", "value": 0.03, "unit": "%ID/g"}, {"measurement": "tissue uptake at 4 h", "setting": "[1]; [10]", "value": 0.04, "unit": "%ID/g"}, {"measurement": "tissue uptake at 24 h", "setting": "[1]; [10]", "value": 0.03, "unit": "%ID/g"}, {"measurement": "tissue uptake at 48 h", "setting": "[1]; [10]", "value": 0.02, "unit": "%ID/g"}, {"measurement": "tissue uptake at 4 h", "setting": "[1]; [11]", "value": "0.07 ± 0.01", "unit": "%ID/g"}, {"measurement": "tissue uptake at 24 h", "setting": "[1]; [11]", "value": "0.08 ± 0.01", "unit": "%ID/g"}, {"measurement": "tissue uptake at 48 h", "setting": "[1]; [11]", "value": "0.05 ± 0.01", "unit": "%ID/g"}, {"measurement": "tissue uptake at 4 h", "setting": "[1]; [12]", "value": "0.14 ± 0.01", "unit": "%ID/g"}, {"measurement": "tissue uptake at 24 h", "setting": "[1]; [12]", "value": "0.11 ± 0.01", "unit": "%ID/g"}, {"measurement": "tissue uptake at 48 h", "setting": "[1]; [12]", "value": "0.1 ± 0.01", "unit": "%ID/g"}, {"measurement": "tissue uptake at 4 h", "setting": "[1]; [13]", "value": "0.09 ± 0.01", "unit": "%ID/g"}, {"measurement": "tissue uptake at 24 h", "setting": "[1]; [13]", "value": "0.12 ± 0.02", "unit": "%ID/g"}, {"measurement": "tissue uptake at 48 h", "setting": "[1]; [13]", "value": "0.11 ± 0.05", "unit": "%ID/g"}]}
